In this assay the test system is Plasmodium berghei. Briefly: Luciferase/luciferin-expressing antifolate-resistant parasites were used to infect a culture of HepG2 cells that were pre-incubated with compounds. Infected hepatocytes emit light due to the luciferase reaction. Assay results are presented as the percent inhibition of light emission compared to control. […]. It counts as functional. The settings on record: sporozoite; for IC90: read-out: LUCIFERASE INFECTION ASSAY - IC90.

Where [1] appears, read: read-out: LUCIFERASE INFECTION ASSAY - IC50.

A value given as a limit tells only on which side of the number the result lay.

The term IC50 denotes the midpoint of a concentration-inhibition curve. The term IC90 denotes the concentration needed for an effect of 90%. In the case of `CC1(C)CS/C(=N\Cc2ccccc2)N1C(=O)C(c1ccccc1)c1ccccc1`, the 90% effect concentration (IC90) was above 10 µM. In addition, the IC50 (PBLUC_HILL_SLOPE 1.51, PBLUC_R_SQUARED 0.0539, read-out: LUCIFERASE INFECTION ASSAY - IC50) is above 10 µM.
As for `CCOC(=O)C1=C(COC(=O)c2oc3ccc(OC)cc3c2C)NC(=O)NC1`, the IC90 was above 10 µM. The IC50 (HEPG2TOX_HILL_SLOPE 3.23, HEPG2TOX_R_SQUARED 0.736, PBLUC_HILL_SLOPE 1.66, PBLUC_R_SQUARED 0.334, read-out: LUCIFERASE INFECTION ASSAY - IC50) was above 10 µM.
In the case of `CCOC(=O)c1sc(SCc2ccc(Cl)cc2)c(S(=O)(=O)C(C)C)c1-n1cccc1`, the concentration for an effect of 90% (IC90) was above 6.82 µM. Further, the IC50 (FFLUC_HILL_SLOPE 13.5, FFLUC_R_SQUARED 0.375, read-out: LUCIFERASE INFECTION ASSAY - IC50) was above 6.82 µM.
Take `O=C(N/N=C/c1sc(Nc2ccccc2)nc1Cl)c1cc(-c2ccncc2)nc2ccccc12`: the IC90 was above 10 µM. The half-inhibitory concentration (IC50) under setting [1] was above 10 µM.
Take `O=C(Nc1ccc(OC(F)(F)F)cc1)N1CCN(c2cc(C(F)(F)F)nc3ccccc23)CC1`: the IC90 was above 6.81 µM. Also, the IC50 under setting [1] was above 6.81 µM.
As for `COc1cccc(NC(=O)Nc2ccc(N3CCN(c4ncccc4C(F)(F)F)CC3)nc2)c1`, the concentration for an effect of 90% (IC90) is above 6.98 µM. The IC50 (PBLUC_HILL_SLOPE 3.4, PBLUC_R_SQUARED 0.647, read-out: LUCIFERASE INFECTION ASSAY - IC50) came to 5.69 µM.
For `COc1cc(-c2ccc3ncc(-c4cccc(Cl)c4)n3n2)cc(OC)c1OC`, the 90% effect concentration (IC90) is 5.69 µM. Also, the IC50 (HEPG2TOX_HILL_SLOPE 9.46, HEPG2TOX_R_SQUARED 0.786, PBLUC_HILL_SLOPE 7.92, PBLUC_R_SQUARED 0.391, read-out: LUCIFERASE INFECTION ASSAY - IC50) was 4.31 µM.
Consider `CCN(C(=O)COc1ccc(-c2ccccc2)cc1)c1cccc2ccccc12`, for which the concentration for an effect of 90% (IC90) is above 10 µM. Further, the concentration for half-maximal inhibition (IC50) under setting [1] is above 10 µM.
For `Brc1ccc(-c2noc(CCc3nc4ccccc4[nH]3)n2)cc1`, the concentration for an effect of 90% (IC90) amounted to 7.07 µM. In addition, the IC50 (HEPG2TOX_HILL_SLOPE 9.24, HEPG2TOX_R_SQUARED 0.722, PBLUC_HILL_SLOPE 3.58, PBLUC_R_SQUARED 0.661, read-out: LUCIFERASE INFECTION ASSAY - IC50) was determined as 3.83 µM.
On to `O=C1CC(c2cccc(Cl)c2Cl)c2c([nH]c(-c3ccccc3)nc2=O)N1` (stereo unspecified), for which the IC90 is above 8.54 µM. Moreover, under setting [1], the IC50 is above 8.54 µM.
As to `Cc1cccc(Cn2nc(C(C)(C)C)cc2C(=O)Nc2cccc(OC(F)(F)F)c2)c1`, the IC90 is above 7.65 µM. For the same molecule, the concentration for half-maximal inhibition (IC50) (PBLUC_HILL_SLOPE 1.23, PBLUC_R_SQUARED 0.161, read-out: LUCIFERASE INFECTION ASSAY - IC50) is above 7.65 µM.
In the case of `O=C(OCc1cc(=O)oc2ccc3ccccc3c12)c1ccccc1-c1ccc(C(F)(F)F)cc1`, the IC90 was above 10 µM. Also, the half-maximal inhibitory concentration (IC50) (FFLUC_HILL_SLOPE 17.5, FFLUC_R_SQUARED 0.62, read-out: LUCIFERASE INFECTION ASSAY - IC50) was above 10 µM.
On to `COc1ccc(-c2nonc2NC(=O)c2oc3ccc(F)cc3c2C)cc1`, for which the concentration for an effect of 90% (IC90) was 1.27 µM. In addition, the half-inhibitory concentration (IC50) (HEPG2TOX_HILL_SLOPE 1.77, HEPG2TOX_R_SQUARED 0.888, PBLUC_HILL_SLOPE 11.3, PBLUC_R_SQUARED 0.0148, read-out: LUCIFERASE INFECTION ASSAY - IC50) was found to be 1.05 µM.
Consider `COc1ccc(CCN=C(S)Nc2ccccc2C)cc1`, for which the concentration for an effect of 90% (IC90) is above 11 µM. For the same molecule, the IC50 under setting [1] was above 11 µM.
As to `COC(=O)c1cnc(NC(=O)/C=C/c2ccc([N+](=O)[O-])o2)s1`, the IC90 was above 10 µM. Moreover, the 50% inhibitory concentration (IC50) (HEPG2TOX_HILL_SLOPE 3.5, HEPG2TOX_R_SQUARED 0.48, read-out: LUCIFERASE INFECTION ASSAY - IC50) is above 10 µM.
Take `OCc1ccc(-c2cn3c(-c4ccc(Oc5ccccc5)cc4)cnc3cn2)cc1`: the IC90 was above 8.39 µM. Moreover, for the setting “PBLUC_HILL_SLOPE 2.74, PBLUC_R_SQUARED 0.523, read-out: LUCIFERASE INFECTION ASSAY - IC50”, the IC50 stood at 5.32 µM.
Turning to `CC(OC(=O)c1cc2c(s1)-c1ccccc1OC2)C(=O)N1CCNC1=O` (stereo unspecified), the 90% effect concentration (IC90) is above 10 µM. The IC50 (PBLUC_HILL_SLOPE 18.2, PBLUC_R_SQUARED 0.638, read-out: LUCIFERASE INFECTION ASSAY - IC50) was 9.62 µM.
Take `Cc1oc2[nH]cnc(=O)c2c1C(=O)Nc1ccccc1Cc1ccccc1`: the IC90 was above 10 µM. The half-inhibitory concentration (IC50) (FFLUC_HILL_SLOPE 0.892, FFLUC_R_SQUARED 0.572, PBLUC_HILL_SLOPE 0.52, PBLUC_R_SQUARED 0.732, read-out: LUCIFERASE INFECTION ASSAY - IC50) amounted to 2.73 µM.
In the case of `O=C(/C=C/c1cc([N+](=O)[O-])ccc1Cl)c1ccc(N2CCOCC2)c(F)c1`, the concentration for an effect of 90% (IC90) is above 10 µM. In addition, the concentration for half-maximal inhibition (IC50) (HEPG2TOX_HILL_SLOPE 3.72, HEPG2TOX_R_SQUARED 0.763, PBLUC_HILL_SLOPE 12.8, PBLUC_R_SQUARED 0.291, read-out: LUCIFERASE INFECTION ASSAY - IC50) came to 8.87 µM.
On to `Cc1csc(NC(=O)Nc2cc(C(F)(F)F)cc(C(F)(F)F)c2)c1`, for which the concentration for an effect of 90% (IC90) stood at 3.4 µM. In addition, the half-maximal inhibitory concentration (IC50) (HEPG2TOX_HILL_SLOPE 15.4, HEPG2TOX_R_SQUARED 0.694, PBLUC_HILL_SLOPE 2.82, PBLUC_R_SQUARED 0.474, read-out: LUCIFERASE INFECTION ASSAY - IC50) stood at 1.56 µM.
Take `CSc1nc(=NC(=O)NS(=O)(=O)Oc2ccc(Cl)cc2Cl)n2nc(C3CC3)cc2[nH]1`: the IC90 is above 6.74 µM. Also, the IC50 under setting [1] is above 6.74 µM.
In the case of `CC(=O)N[C@H]1[C@@H](OC(C)=O)O[C@H](COC(c2ccccc2)(c2ccccc2)c2ccccc2)[C@@H](OC(C)=O)[C@@H]1OC(C)=O`, the concentration for an effect of 90% (IC90) was above 5.6 µM. The half-inhibitory concentration (IC50) under setting [1] is above 5.6 µM.
Regarding `Cc1cc(C)c(NC(=O)c2cc(C)on2)c(C)c1`, the 90% effect concentration (IC90) was above 10 µM. The IC50 (HEPG2TOX_HILL_SLOPE 17.1, HEPG2TOX_R_SQUARED 0.826, PBLUC_HILL_SLOPE 16.1, PBLUC_R_SQUARED 0.022, read-out: LUCIFERASE INFECTION ASSAY - IC50) turned out to be 9.8 µM.
For the molecule `CCC(=O)/C(=N/Nc1ccccc1)C(=O)OC`, the 90% effect concentration (IC90) is above 14.1 µM. Besides, under setting [1], the IC50 is above 14.1 µM.
Turning to `O=[N+]([O-])c1ccc(NN=C2CCSC2)c(S(=O)(=O)Nc2ccc(Cl)cc2)c1`, the 90% effect concentration (IC90) was above 10 µM. Also, under setting [1], the IC50 was above 10 µM.
As to `ONC(=NC(=S)Nc1cc(Cl)ccc1Cl)c1ccccn1`, the IC90 came out at 9.52 µM. In addition, the IC50 (HEPG2TOX_HILL_SLOPE 1.13, HEPG2TOX_R_SQUARED 0.776, PBLUC_HILL_SLOPE 15.8, PBLUC_R_SQUARED 0.357, read-out: LUCIFERASE INFECTION ASSAY - IC50) was 8.29 µM.
Consider `CCc1nnc(SCc2cc(=O)n3c(C)csc3n2)[nH]1`, for which the IC90 is above 10 µM. Under “FFLUC_HILL_SLOPE 120, FFLUC_R_SQUARED 0.18, read-out: LUCIFERASE INFECTION ASSAY - IC50”, the IC50 is above 10 µM.
On to `CC(=O)c1sc2sc(C#N)c(C)c2c1C`, for which the 90% effect concentration (IC90) was above 14 µM. Under setting [1], the IC50 was above 14 µM.
`CC1(C)C=Cc2cc(/C(N)=N/OC(=O)c3ccccc3)ccc2O1`: the concentration for an effect of 90% (IC90) was determined as 0.211 µM. The 50% inhibitory concentration (IC50) (FFLUC_HILL_SLOPE 1.86, FFLUC_R_SQUARED 0.604, PBLUC_HILL_SLOPE 0.872, PBLUC_R_SQUARED 0.782, read-out: LUCIFERASE INFECTION ASSAY - IC50) is 0.0169 µM.
Turning to `CC(C)c1ccc(-n2c(SCc3ccc([N+](=O)[O-])cc3)nnc2-c2ccc(C(C)(C)C)cc2)cc1`, the IC90 was above 6.78 µM. In addition, the IC50 under setting [1] is above 6.78 µM.
For the molecule `CCCCNC(=O)c1c(NC(=O)c2cccc(Cl)c2Cl)nc2ccccn12`, the concentration for an effect of 90% (IC90) is above 8.14 µM. For the same molecule, where the note is “PBLUC_HILL_SLOPE 8.82, PBLUC_R_SQUARED 0.193, read-out: LUCIFERASE INFECTION ASSAY - IC50”, the IC50 amounted to 6.71 µM.
With `CC(C)(C)c1ccc(NC(=O)c2cnccn2)cc1`, the IC90 stood at 8.29 µM. Besides, the concentration for half-maximal inhibition (IC50) (FFLUC_HILL_SLOPE 1.15, FFLUC_R_SQUARED 0.77, PBLUC_HILL_SLOPE 0.39, PBLUC_R_SQUARED 0.583, read-out: LUCIFERASE INFECTION ASSAY - IC50) came to 0.0298 µM.
Consider `CCOc1ccc(NC(=O)c2ccc(F)cc2)cc1S(=O)(=O)N(C)C`, for which the IC90 was above 10 µM. Besides, the half-maximal inhibitory concentration (IC50) (PBLUC_HILL_SLOPE 2.43, PBLUC_R_SQUARED 0.406, read-out: LUCIFERASE INFECTION ASSAY - IC50) worked out at 8.56 µM.
On to `CC(=O)Nc1ccc(Nc2cc3c(cn2)nc(-c2ccccc2)n3C)cc1`, for which the IC90 was found to be 3.77 µM. In addition, the concentration for half-maximal inhibition (IC50) (HEPG2TOX_HILL_SLOPE 4.43, HEPG2TOX_R_SQUARED 0.848, PBLUC_HILL_SLOPE 16.8, PBLUC_R_SQUARED 0.556, read-out: LUCIFERASE INFECTION ASSAY - IC50) came to 3.31 µM.
As for `Cc1ccc2c(c1)NC(C)c1ccccc1O2` (stereo unspecified), the IC90 was above 10 µM. Moreover, the 50% inhibitory concentration (IC50) (FFLUC_HILL_SLOPE 2.08, FFLUC_R_SQUARED 0.224, HEPG2TOX_HILL_SLOPE 6.95, HEPG2TOX_R_SQUARED 0.413, PBLUC_HILL_SLOPE 13.7, PBLUC_R_SQUARED 0.727, read-out: LUCIFERASE INFECTION ASSAY - IC50) amounted to 8.91 µM.
`Oc1c(Cl)cc(Cl)cc1C1Nc2cccc3cccc(c23)N1`: the IC90 is above 9.96 µM. Besides, the IC50 under setting [1] was above 9.96 µM.
As to `COc1ccc(-c2cnc3cnc(-c4cccc(C(=O)NCCO)c4)cn23)cc1`, the 90% effect concentration (IC90) worked out at 8.22 µM. In addition, the IC50 (PBLUC_HILL_SLOPE 19.3, PBLUC_R_SQUARED 0.197, read-out: LUCIFERASE INFECTION ASSAY - IC50) came to 7.33 µM.
For `CCCN(CC(=O)Nc1scc(-c2ccccc2)c1C(=O)OCC)Cc1nnc(-c2ccco2)o1`, the 90% effect concentration (IC90) is above 10 µM. The IC50 under setting [1] was above 10 µM.

The record behind these values is ChEMBL document CHEMBL4483862, “Open-source discovery of chemical leads for next-generation chemoprotective antimalarials” (2018).
